Broadly, the EC50 is the concentration at which the effect is half-maximal. A word on the IC50: it is the midpoint of a concentration-inhibition curve.

Read-outs that look alike come from different tables or passages of the source. Some results are limits rather than exact numbers.

In experiment [1] the test system is TNFα production in LPS-stimulated human monocytes. The experiment can be described thus: Cot Monocyte TNFα Cell Based Assay. Particulars: Homo sapiens, Monocyte, read-out: EC50 TNF. The method in brief: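 Cells at 5,000/well were pretreated with compound for 1 h at 37 °C (0.5% DMSO final), then stimulated with 50 pg/ml LPS for 4 h at 37 °C. Supernatant TNFα was measured by two-antibody TR-FRET after overnight room-temperature incubation; values are percent of control between unstimulated and stimulated wells.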

For experiment [2], the target named is T1, human Cot catalytic domain (30-397 amino acids) (Homo sapiens, UniProt P41279).
T1 construct: Purified recombinant human Cot catalytic domain (30-397 amino acids) was purchased from Cama Biosciences; purchased Cama Biosciences (so in the source)
Put plainly: High Throughput Cot Biochemical Assay (KinEASE TR-FRET). Particulars: read-out: IC50 HTRF. In short, it runs like this:
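Reaction of 5 nM recombinant human Cot catalytic domain (aa 30-397) with 1 μM STK3 peptide (XL665-labeled) and 400 μM ATP in 10 mM MOPS pH 7.0, 10 mM MgOAc, 1 mM DTT, 0.5 mg/mL BSA, 0.1% DMSO. Phosphopeptide detected by TR-FRET with europium anti-phospho antibody.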
(TR-FRET usually uses a lanthanide donor and a delayed reading to cut background.)

Where [3] appears, read: TNFα in LPS-stimulated human monocytes.
[4] abbreviates: Cot biochemical HTRF (KinEASE TR-FRET) assay.
Setting [5] is: LPS-stimulated human monocytes, TNFα TR-FRET.
The mark [6] stands for this setting: Cot KinEASE TR-FRET, 400 μM ATP.
[7] abbreviates: Cot KinEASE TR-FRET (HTRF) biochemical assay, 400 μM ATP.

T1 sequence (P41279 30-397): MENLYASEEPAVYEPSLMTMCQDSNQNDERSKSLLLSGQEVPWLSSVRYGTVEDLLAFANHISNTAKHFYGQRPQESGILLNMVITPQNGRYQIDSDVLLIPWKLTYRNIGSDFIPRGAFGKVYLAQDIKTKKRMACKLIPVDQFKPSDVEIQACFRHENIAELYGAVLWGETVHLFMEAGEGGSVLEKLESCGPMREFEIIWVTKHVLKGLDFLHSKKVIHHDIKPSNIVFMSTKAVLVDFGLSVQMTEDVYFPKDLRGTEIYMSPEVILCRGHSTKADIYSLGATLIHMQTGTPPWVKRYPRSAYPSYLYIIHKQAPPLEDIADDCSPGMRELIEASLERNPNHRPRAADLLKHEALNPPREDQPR

Regarding `CC1(C)CC(n2cc([C@@H](Nc3cc(F)c4ncc(C#N)c(Nc5ccc(F)c(Cl)c5)c4c3)c3ccc(Cl)cc3)nn2)CC(C)(C)N1` [Example 707, (S)-4-((3-chloro-4-fluorophenyl)amino)-6-(((4-chlorophenyl)(1-(2,2,6,6-tetramethylpiperidin-4-yl)-1H-1,2,3-triazol-4-yl)methyl)amino)-8-fluoroquinoline-3-carbonitrile], the EC50 in experiment [1] (setting [3]) was 3010 nM. Also, the IC50 in experiment [2] (setting [4]) came to 134 nM.
Taken in the same sequence, the figures for `N#Cc1cnc2c(Cl)cc(N[C@@H](c3ccccc3)c3cn(CC4(N5CCCC5)COC4)nn3)cc2c1Nc1ccc(F)c(Cl)c1` [Example 544] were 1190 nM and 94 nM.
Consider `CC[C@@H](Nc1c(C#N)cnc2c(Cl)cc(N[C@@H](c3cccc(F)c3F)c3cnnn3C(F)F)cc12)c1ccccc1` [Example 427, 8-chloro-6-(((S)-(1-(difluoromethyl)-1H-1,2,3-triazol-5-yl)(2,3-difluorophenyl)methyl)amino)-4-(((R)-1-phenylpropyl)amino) quinoline-3-carbonitrile], for which the EC50 in experiment [1] (setting [3]) came to 8880 nM. In addition, in experiment [2] (setting [4]), the IC50 is 316 nM.
Take `CC[C@@H](Nc1c(C#N)cnc2c(Cl)cc(N[C@@H](c3ccc(F)cc3)c3c[nH]nn3)cc12)c1ccccc1` [Example 537, 8-chloro-6-(((S)-(4-fluorophenyl)(1H-1,2,3-triazol-4-yl)methyl)amino)-4-(((R)-1-phenylpropyl)amino) quinoline-3-carbonitrile]: the half-maximal effective concentration (EC50) in experiment [1] (setting [3]) is 458 nM. Further, the IC50 in experiment [2] (setting [4]) was found to be 17 nM.
Regarding `Cc1c([C@H](Nc2cc(Cl)c3ncc(C#N)c(NCC(C)(C)C)c3c2)c2cn(C3(C(F)F)CC3)nn2)cccc1-n1cnnn1` [Example 1062, (S)-8-chloro-6-(((1-(1-(difluoromethyl)cyclopropyl)-1H-1,2,3-triazol-4-yl)(2-methyl-3-(1H-tetrazol-1 yl)phenyl)methyl)amino)-4-(neopentylamino)quinoline-3-carbonitrile], the half-maximal effective concentration (EC50) in experiment [1] (setting [5]) was found to be 70 nM. The IC50 in experiment [2] (setting [6]) stood at 3 nM.
The matching figures for `[2H][C@](Nc1cc(Cl)c2ncc(C#N)c(NCC(C)(C)c3ccccn3)c2c1)(c1ccc(F)cc1)c1cn(C2CC2)nn1` [Example 1016, (S)-8-chloro-6-(((1-cyclopropyl-1H-1,2,3-triazol-4-yl)(4-fluorophenyl)methyl-d)amino)-4-((2-methyl-2-(pyridin-2-yl)propyl)amino)quinoline-3-carbonitrile]: not below 1000 nM and 28 nM.
For the molecule `C[C@@H](Nc1c(C#N)cnc2c(Cl)cc(N[C@@H](c3ccccc3)c3cn(C4CCN(C(C)(C)C)CC4)nn3)cc12)C1CCCCC1` [Example 523, 6-(((S)-(1-(1-(tert-butyl)piperidin-4-yl)-1H-1,2,3-triazol-4-yl)(phenyl)methyl)amino)-8-chloro-4-(((R)-1-cyclohexylethyl)amino) quinoline-3-carbonitrile], the EC50 in experiment [1] (setting [3]) worked out at 4880 nM. Also, in experiment [2] (setting [4]), the IC50 is 300 nM.
`Cc1c(C#N)cccc1[C@H](Nc1cc(C#N)c2ncc(C#N)c(NCC(C)(C)C)c2c1)c1cn(C2(CF)CC2)nn1` [Example 1147, (S)-6-(((3-cyano-2-methylphenyl)(1-(1-(fluoromethyl)cyclopropyl)-1H-1,2,3-triazo1-4-yl)methyl)amino)-4-(neopentylamino)quinoline-3,8-dicarbonitrile]: in experiment [1] (setting [5]), the EC50 was found to be 15 nM. The IC50 in experiment [2] (setting [6]) stood at 2 nM.
For the molecule `[2H][C@](Nc1cc(Cl)c2ncc(C#N)c(NC3CC3(C)C)c2c1)(c1ccc(F)cc1)c1cn(C2CC2)nn1` (stereo partly drawn) [Example 156, 8-chloro-6-(((S)-(1-cyclopropyl-1H-1,2,3-triazol-4-yl)(4-fluorophenyl)methyl-d)amino)-4-((2,2-dimethylcyclopropyl)amino)quinoline-3-carbonitrile], in experiment [1] (setting [3]), the EC50 came to 477 nM. Also, the IC50 in experiment [2] (setting [7]) is 30 nM.
Take `C[C@@H](Nc1c(C#N)cnc2c(Cl)cc(N[C@@H](c3cccc(C(=O)N(C)C)c3)c3c[nH]nn3)cc12)c1ccccc1` [Example 578, 3-((S)-((8-chloro-3-cyano-4-(((R)-1-phenylethyl)amino)quinolin-6-yl)amino)(1H-1,2,3-triazol-4-yl)methyl)-N,N-dimethylbenzamide]: the EC50 in experiment [1] (setting [3]) worked out at 2150 nM. Further, the IC50 in experiment [2] (setting [4]) came to 13 nM.
On to `[2H][C@](Nc1cc(Cl)c2ncc(C#N)c(N[C@H](CC)c3ccccc3)c2c1)(c1ccc(F)cc1)c1cn(C2(C(F)F)CC2)nn1` [Example 1028, 8-chloro-6-(((S)-(1-(1-(difluoromethyl)cyclopropyl)-1H-1,2,3-triazol-4-yl)(4-fluorophenyl)methyl-d)amino)-4-(((R)-1-phenylpropyl)amino)quinoline-3-carbonitrile], for which, in experiment [1] (setting [5]), the EC50 was found to be 259 nM. In addition, in experiment [2] (setting [6]), the IC50 worked out at 17 nM.
In the case of `CC(C)(C)N1CCC(n2cc([C@@H](Nc3cc(Cl)c4ncc(C#N)c(Nc5cccc6[nH]c(=O)[nH]c56)c4c3)c3ccccc3)nn2)CC1` [Example 479, (S)-6-(((1-(1-(tert-butyl)piperidin-4-yl)-1H-1,2,3-triazol-4-yl)(phenyl)methyl)amino)-8-chloro-4-((2-oxo-2,3-dihydro-1H-benzo[d]imidazol-4-yl)amino) quinoline-3-carbonitrile], the EC50 in experiment [1] (setting [3]) was more than 10000 nM. The IC50 in experiment [2] (setting [4]) was 5280 nM.
In the case of `[2H][C@](Nc1cc(Cl)c2ncc(C#N)c(NNC(C)(C)C)c2c1)(c1ccc(F)cc1)c1cn(C2CC2)nn1` [Example 310, (S)-4-(2-(tert-butyl)hydrazinyl)-8-chloro-6-(((1-cyclopropyl-1H-1,2,3-triazol-4-yl)(4-fluorophenyl)methyl-d)amino)quinoline-3-carbonitrile], in experiment [1] (setting [3]), the EC50 stood at 2360 nM. The IC50 in experiment [2] (setting [7]) is more than 10000 nM.
Take `[2H]c1c([C@@]([2H])(Nc2cc(C#N)c3ncc(C#N)c(NCC(C)(C)C)c3c2)c2c(F)cccc2Cl)nnn1C1(C)CC1` [Example 1048, (S)-6-(((2-chloro-6-fluorophenyl)(1-(1-methylcyclopropyl)-1H-1,2,3-triazol-4-yl-5-d)methyl-d)amino)-4-(neopentylamino)quinoline-3,8-dicarbonitrile]: the EC50 in experiment [1] (setting [5]) came out at 637 nM. The IC50 in experiment [2] (setting [6]) worked out at 33 nM.
With `N#Cc1cnc2c(Cl)cc(N[C@@H](c3ccc(F)cc3)c3cn(CC4(O)CC4)nn3)cc2c1Nc1cnc(F)c(F)c1` [Example 384, (S)-8-chloro-4-((5,6-difluoropyridin-3-yl)amino)-6-(((4-fluorophenyl)(1-((1-hydroxycyclopropyl)methyl)-1H-1,2,3-triazol-4-yl)methyl)amino)quinoline-3-carbonitrile], the EC50 in experiment [1] (setting [3]) was 832 nM. Besides, in experiment [2] (setting [7]), the IC50 was 8 nM.
Taken in the same sequence, the figures for `N#CCC[C@@H](Nc1c(C#N)cnc2c(Cl)cc(N[C@H](c3cn(C4(C#N)CC4)nn3)c3ccccc3Cl)cc12)c1ccccc1` [Example 73, 8-chloro-6-(((S)-(2-chlorophenyl)(1-(1-cyanocyclopropyl)-1H-1,2,3-triazol-4-yl)methyl)amino)-4-(((R)-3-cyano-1-phenylpropyl)amino) quinoline-3-carbonitrile] were 34 nM and 2 nM.
Taken in the same sequence, the figures for `[2H][C@](Nc1cc(Cl)c2ncc(C#N)c(N[C@@H](C)C(C)(C)C)c2c1)(c1ccc(F)cc1)c1cn(C2CC2)nn1` [Example 244, 8-chloro-6-(((S)-(1-cyclopropyl-1H-1,2,3-triazol-4-yl)(4-fluorophenyl)methyl-d)amino)-4-(((S)-3,3-dimethylbutan-2-yl)amino)quinoline-3-carbonitrile] were 5690 nM and 576 nM.
Take `CC(C)(C)N1CCC(n2cc([C@@H](Nc3cc(Cl)c4ncc(C#N)c(Nc5ccc(Cl)c(Cl)c5)c4c3)c3ccc(Cl)cc3)nn2)CC1` [Example 765, (S)-6-(((1-(1-(tert-butyl)piperidin-4-yl)-1H-1,2,3-triazol-4-yl)(4-chlorophenyl)methyl)amino)-8-chloro-4-((3,4-dichlorophenyl)amino)quino1ine-3-carbonitrile]: the EC50 in experiment [1] (setting [3]) came out at 1290 nM. For the same molecule, the IC50 in experiment [2] (setting [4]) was 70 nM.
Regarding `Cc1c(C#N)cccc1[C@H](Nc1cc(C#N)c2ncc(C#N)c(NCC(C)(C)C)c2c1)c1cn(C2(C3CC3)CC2)nn1` [Example 1157, (S)-6-(((1-([1,1'-bi(cyclopropan)]-1-yl)-1H-1,2,3-triazol-4-yl)(3-cyano-2-methylphenyl)methyl)amino)-4-(neopentylamino)quinoline-3,8-dicarbonitrile], in experiment [1] (setting [5]), the EC50 is 15 nM. In addition, the IC50 in experiment [2] (setting [6]) is 3 nM.
With `CC(C)(C)CNc1c(C#N)cnc2c(Cl)cc(N[C@@H](c3ccc(F)cc3)c3cn(C4(C(F)(F)F)CCC4)nn3)cc12` [Example 998, (S)-8-chloro-6-(((4-fluorophenyl)(1-(1-(trifluoromethyl)cyclobutyl)-1H-1,2,3-triazol-4-yl)methyl)amino)-4-(neopentylamino)quinoline-3-carbonitrile], the EC50 in experiment [1] (setting [5]) was determined as 250 nM. Also, the IC50 in experiment [2] (setting [6]) came to 53 nM.
Turning to `[2H]C(Nc1cc(Cl)c2ncc(C#N)c(NC(CS(C)(=O)=O)c3ccccc3)c2c1)(c1ccc(F)cc1)c1cn(C2CC2)nn1` (stereo not drawn) [Example 193, 8-chloro-6-(((1-cyclopropyl-1H-1,2,3-triazol-4-yl)(4-fluorophenyl)methyl-d)amino)-4-((2-(methylsulfonyl)-1-phenylethyl)amino) quinoline-3-carbonitrile], the half-maximal effective concentration (EC50) in experiment [1] (setting [3]) amounted to 833 nM. In addition, the 50% inhibitory concentration (IC50) in experiment [2] (setting [7]) came out at 57 nM.

The values are drawn from US10316017B2, “COT modulators and methods of use thereof” (Gilead Sciences, Inc., priority 2015, dated 2019).
